Results as given in PMC6429183, “Identification of Compounds That Inhibit Estrogen-Related Receptor Alpha Signaling Using High-Throughput Screening Assays” (Molecules, 2019).
Several values for one entry are separate records, joined by “and”; a condition that tells them apart may be missing. Equal entries are not always repeated.

Columns and labels:
[1] = system: cytochrome c; assay: qRT-PCR mRNA expression of ERR downstream gene cytochrome c; type: cell-based; conditions: ERR reporter cells, vs GAPDH, DMSO = 0%
Experimental: (§1) Total RNA was isolated from treated ERR reporter cells using an RNeasy Mini Kit (Qiagen, Germantown, MD, USA), homogenized using a QIAshredder (Qiagen), and reverse transcribed with a High-Capacity RNA-to-cDNA™ Kit (ThermoFisher Scientific, Inc.) following the manufacturers’ instructions. Expression of ERRα, COX8α, IDH3α, PPARα, COX4I1, and cytochrome c genes was normalized against GAPDH. All primers were purchased from ThermoFisher Scientific, Inc. Real-time PCR assays were performed in 384-well plates on a QuantStudio 5 (Applied Biosystems, Foster City, CA, USA) with TaqMan™ Gene Expression Master Mix (ThermoFisher Scientific, Inc.). Induction values were calculated using the equation: Fold = 2^ΔΔCt, where ΔCt represents the differences in cycle threshold numbers between each of the target genes and GAPDH, and ΔΔCt represents the relative change in these differences between control and treatment groups. Experimental data are presented as a mean of triplicate determinations ± SD. Statistical comparisons were made by t-test, while the statistical significance was set at p values of <0.05 (light blue), <0.01 (medium blue), and <0.001 (dark blue).

[2] = system: COX4I1; assay: qRT-PCR mRNA expression of ERR downstream gene COX4I1; type: cell-based; conditions: ERR reporter cells, vs GAPDH, DMSO = 0%
Experimental: as §1, with “Experimental data are presented as a mean of triplicate determinations ± SD. Statistical comparisons were made by t-test, while the statistical significance was set at p values of <0.05 (light blue), <0.01 (medium blue), and <0.001 (dark blue).” left out

[3] = target: T1, ERRα with PGC-1α (PGC/ERR pathway) (Homo sapiens, UniProt P11474); assay: PGC/ERR reporter (luciferase) qHTS assay, PGC/ERR-HEK293; conditions: for EC50: mean ± SD, triplicate
T1 sequence (P11474 1-423): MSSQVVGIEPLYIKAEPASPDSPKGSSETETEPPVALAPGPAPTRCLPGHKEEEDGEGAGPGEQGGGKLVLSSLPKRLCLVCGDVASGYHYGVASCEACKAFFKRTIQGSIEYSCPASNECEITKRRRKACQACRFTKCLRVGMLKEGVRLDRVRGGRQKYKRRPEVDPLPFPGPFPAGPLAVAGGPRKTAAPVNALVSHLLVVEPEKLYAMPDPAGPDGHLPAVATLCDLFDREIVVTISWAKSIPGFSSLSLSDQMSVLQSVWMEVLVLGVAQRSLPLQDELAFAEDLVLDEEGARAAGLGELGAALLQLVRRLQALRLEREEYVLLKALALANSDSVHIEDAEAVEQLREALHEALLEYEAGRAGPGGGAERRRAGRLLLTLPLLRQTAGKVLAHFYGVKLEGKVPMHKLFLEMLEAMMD
Experimental: (§3) The ERR reporter HEK293 cells were cultured in high glucose DMEM medium (ThermoFisher Scientific, Inc., Waltham, MA, USA) supplemented with 10% fetal bovine serum (FBS; ThermoFisher Scientific, Inc.), 4 mM of L-glutamine (ThermoFisher Scientific, Inc.), 1 mM of sodium pyruvate (ThermoFisher Scientific, Inc.), 100 U/mL of penicillin and 100 mg/mL of streptomycin (ThermoFisher Scientific, Inc.). PGC/ERR reporter HEK293 cells were cultured in the same medium as the ERR reporter HEK293 cells with an additional 1 μg/mL puromycin (ThermoFisher Scientific, Inc.) as the selection marker for PGC-1α expression.
(§4) The DMSO-only compound plates at the beginning and end of the compound plate stack were used to correct the data set by applying an in-house pattern correction algorithm [90]. The half maximum inhibition values (IC50) for each compound and maximum response (efficacy) values were obtained by fitting the concentration-response curves of each compound to a four-parameter Hill equation [91]. […] For each reading, the activity outcome of a test compound was first categorized by the average curve rank from the triplicate runs and the reproducibility calls. The final activity outcome of each compound was based on the ERR antagonist readout activity and cell viability counter screen.

[4] = system: ERR reporter HEK293 cells; assay: CellTiter-Fluor cell viability assay multiplexed with ERR reporter assay; type: cell-based
Experimental: (§2) ERR or PGC/ERR reporter HEK293 cells suspended in culture medium without puromycin were dispensed at 2500 cells/5 μL/well in tissue culture–treated 1536-well white assay plates (Greiner Bio-One North America, Monroe, NC, USA) using a Thermo Scientific Multidrop Combi (ThermoFisher Scientific, Inc.). […] After the cells were incubated at 37 °C with 5% CO2 for 6 h, 23 nL of compounds or control, XTC790, was transferred into the assay plates using a Wako Pintool station (Wako Automation, San Diego, CA, USA). The assay plates were incubated at 37 °C for 18 h, followed by the addition of 5 μL ONE-Glo luciferase reagent (Promega, Madison, WI, USA) using a Flying Reagent Dispenser (Aurora Discovery, Carlsbad, CA, USA). After 30 min of incubation at room temperature, the luminescence intensity of the assay plates was quantified using a ViewLux plate reader (PerkinElmer, Shelton, CT, USA). The assays were performed three times for each compound concentration. These ERR and PGC/ERR reporter assays were multiplexed with the CellTiter-Fluor Cell Viability Assay (Promega), a fluorescence-based cell viability assay, to assess compound cytotoxicity.
The qHTS data were analyzed as described previously. […] The DMSO-only compound plates at the beginning and end of the compound plate stack were used to correct the data set by applying an in-house pattern correction algorithm. The half maximum inhibition values (IC50) for each compound and maximum response (efficacy) values were obtained by fitting the concentration-response curves of each compound to a four-parameter Hill equation [91]. […] For each reading, the activity outcome of a test compound was first categorized by the average curve rank from the triplicate runs and the reproducibility calls. The final activity outcome of each compound was based on the ERR antagonist readout activity and cell viability counter screen.

[5] = target: T2, estrogen-related receptor alpha (ERRα) (Homo sapiens, UniProt P11474); assay: ERR reporter (luciferase) antagonist qHTS assay, ERR-HEK293; conditions: for EC50: mean ± SD, triplicate; for ERR-HEK293 Primary Efficacy: primary qHTS, DMSO = 0%
T2 sequence (P11474 1-423): T1 sequence (P11474 1-423)
Experimental: as §3, §4

[6] = system: PGC/ERR reporter HEK293 cells; assay: CellTiter-Fluor cell viability assay multiplexed with PGC/ERR reporter assay; type: cell-based
Experimental: as §2
The qHTS data were analyzed as described previously. Each titration point was normalized relative to the positive control compound (XCT790 = −100%) and DMSO-only wells (0%) according to the following equation: % Activity = [(Vcompound − VDMSO)/(VDMSO − Vpos)] × 100, where Vcompound denotes the compound well values, Vpos denotes the median value of the positive control wells, and VDMSO denotes the median values of the DMSO-only wells. The DMSO-only compound plates at the beginning and end of the compound plate stack were used to correct the data set by applying an in-house pattern correction algorithm. The half maximum inhibition values (IC50) for each compound and maximum response (efficacy) values were obtained by fitting the concentration-response curves of each compound to a four-parameter Hill equation [91]. Compounds were designated as Class 1–4 according to the type of concentration–response curve observed. For each reading, the activity outcome of a test compound was first categorized by the average curve rank from the triplicate runs and the reproducibility calls. The final activity outcome of each compound was based on the ERR antagonist readout activity and cell viability counter screen.

[7] = system: Nrf2/antioxidant response element (ARE); assay: Nrf2/ARE-HepG2 β-lactamase reporter agonist assay; type: cell-based; conditions: agonist mode, heatmap outcome
Experimental: After the assay plates were incubated at 37 °C for 5–6 h, 23 nL of compounds dissolved in DMSO or positive controls were transferred to the assay plates via a Wako Pintool station (Wako). Except for ARE and p53, all other assays received 1 µL/well agonist (10 nM R1881 for AR; 0.5 and 5 nM β-estradiol for ERα and ERβ respectively; 300 µM CDCA for FXR; 50 nM Rosiglitazone for PPARγ; and 5 nM R5020 for PR) or assay medium using a Flying Reagent Dispenser (FRD). The assay plates were incubated for 16 h (AR, Nrf2/ARE, ERβ, FXR, p53, and PR), 17 h (PPARγ), or 18 h (ERα) at 37 °C, and 1 µL/well LiveBLAzer™ FRET-B/G CCF4-AM substrate (ThermoFisher Scientific, Inc.) detection mix was added using an FRD and the plates were incubated at room temperature for 2 h. […] Data were expressed as the ratio of 460/530 nm emission values.

[8] = system: COX8α; assay: qRT-PCR mRNA expression of ERR downstream gene COX8α; type: cell-based; conditions: ERR reporter cells, vs GAPDH, DMSO = 0%
Experimental: as §1

[9] = system: IDH3α; assay: qRT-PCR mRNA expression of ERR downstream gene IDH3α; type: cell-based; conditions: ERR reporter cells, vs GAPDH, DMSO = 0%
Experimental: as §1

[10] = system: PPARα; assay: qRT-PCR mRNA expression of ERR downstream gene PPARα; type: cell-based; conditions: 12 µM; ERR reporter cells; vs GAPDH, DMSO = 0%

Cc1nc(N)nc(N)c1-c1ccc(Cl)c(Cl)c1 [Methodichlorophen]
Percent inhibition of mRNA gene expression, Cytochrome C ([1]; 2 µM): 47.6% and 47.6 ± 7.45%
Percent inhibition of mRNA gene expression, COX4I1 ([2]; 2 µM): 12.5% and 12.5 ± 2.60%
EC50 ([3]; PGC/ERR-HEK293 Follow-Up EC50, follow-up screen): 1.57 ± 0.354 µM
EC50 ([3]; PGC/ERR-HEK293 Primary EC50, primary qHTS, 18 h): 0.845 ± 0.0971 µM
PGC/ERR-HEK293 Follow-Up Efficacy ([3]; follow-up screen, negative = antagonism, positive = agonism): −61.5 ± 12.6%
activity in the ERR/PGC assay ([3]; in words): antagonism
PGC/ERR-HEK293 Primary Efficacy ([3]; primary qHTS, negative = antagonism, positive = agonism): −68.4 ± 7.64%
ERR-HEK293 Follow-Up Viability EC50 ([4]; follow-up screen, viability): Inactive
ERR-HEK293 Primary Viability EC50 ([4]; primary qHTS, viability counter screen): Inactive
EC50 ([5]; ERR-HEK293 Follow-Up EC50, follow-up (confirmation) screen): 1.6 ± 0.104 µM
EC50 ([5]; ERR-HEK293 Primary EC50, primary qHTS, 18 h, 15 concentrations): 1.06 ± 0.122 µM
ERR-HEK293 Follow-Up Efficacy ([5]; follow-up screen, relative to XCT790 = −100%): −104 ± 7.68%
ERR-HEK293 Primary Efficacy ([5]; relative to XCT790 = −100%): −90.9 ± 4.94%
ERR-HEK293 Primary Efficacy ([5]; relative to XCT790 = −100%, listed as methodichlorophen): −90.9%
PGC/ERR-HEK293 Follow-Up Viability EC50 ([6]; follow-up screen): Inactive
PGC/ERR-HEK293 Primary Viability EC50 ([6]; primary qHTS): Inactive
activity in the Nrf2-ARE assay [7]: active agonists
Percent inhibition of mRNA gene expression, COX8α ([8]; 2 µM): 17.1 ± 29.5%
Percent inhibition of mRNA gene expression, IDH3α ([9]; 2 µM): 50.8% and 50.8 ± 8.69%

COc1cc(/C=C(\C#N)C(=O)Nc2nnc(C(F)(F)F)s2)ccc1OCc1ccc(C(F)(F)F)cc1C(F)(F)F [XCT790]
Percent inhibition of mRNA gene expression, Cytochrome C ([1]; 12 µM): 60.8 ± 2.16%
Percent inhibition of mRNA gene expression, COX4I1 ([2]; 12 µM): 46.0 ± 2.16%
Percent inhibition of mRNA gene expression, PPARα [10]: 16.0 ± 1.70%
Percent inhibition of mRNA gene expression, COX8α ([8]; 12 µM, mean ± S.D.): 65.0 ± 8.41%
Percent inhibition of mRNA gene expression, IDH3α ([9]; 12 µM): 42.6 ± 6.59%

Acriflavine hydrochloride
Percent inhibition of mRNA gene expression, Cytochrome C ([1]; 3 µM): 41.8% and 41.8 ± 3.72%
Percent inhibition of mRNA gene expression, COX4I1 ([2]; 3 µM): 4.76 ± 8.24%
activity in the Nrf2-ARE assay [7]: inconclusive
Percent inhibition of mRNA gene expression, COX8α ([8]; 3 µM): 30.2 ± 18.2%
Percent inhibition of mRNA gene expression, IDH3α ([9]; 3 µM): 74.2% and 74.2 ± 9.92%
